The values that follow come from PubChem BioAssay AID248 (DTP/NCI, 2004).

The structures appear in SMILES notation. Toxic doses and inconclusive results are not listed.

The experiment concerns L1210 leukemia ip in BDF1 mice, survival T/C. The experiment is described as follows: NCI In Vivo Anticancer Drug Screen. Data for tumor model L1210 Leukemia (intraperitoneal) in B6D2F1 (BDF1) mice. To be noted: endpoint: mean survival time, higher = longer survival. Put shortly:
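In this screen, tumor-bearing mice given compound are compared to those given vehicle, and their survival values are reported as a treated-to-control quotient.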

Setting [1] is: dose: 100.0 mg/kg/injection, schedule: Q01DX009 (ip), vehicle: saline with Tween-80.
The mark [2] stands for this setting: dose: 200.0 mg/kg/injection, schedule: Q01DX009 (ip), vehicle: saline with Tween-80.
[3] abbreviates: dose: 400.0 mg/kg/injection, schedule: Q01DX009 (ip), vehicle: saline with Tween-80.
Where [4] appears, read: dose: 100.0 mg/kg/injection, schedule: Q01DX001 (ip), vehicle: carboxymethylcellulose (CMC).
Setting [5] is: dose: 200.0 mg/kg/injection, schedule: Q01DX001 (ip), vehicle: carboxymethylcellulose (CMC).
[6] abbreviates: dose: 400.0 mg/kg/injection, schedule: Q01DX001 (ip), vehicle: carboxymethylcellulose (CMC).
Where [7] appears, read: dose: 50.0 mg/kg/injection, schedule: Q01DX009 (ip), vehicle: saline.
Setting [8] is: dose: 100.0 mg/kg/injection, schedule: Q01DX009 (ip), vehicle: saline.
Setting [9] is: dose: 100.0 mg/kg/injection, schedule: Q04DX003 (ip), vehicle: saline.
[10] abbreviates: dose: 100.0 mg/kg/injection, schedule: Q04DX002 (ip), vehicle: saline with Tween-80.
Setting [11] is: dose: 200.0 mg/kg/injection, schedule: Q04DX002 (ip), vehicle: saline with Tween-80.
The mark [12] stands for this setting: dose: 100.0 mg/kg/injection, schedule: Q01DX009 (ip), vehicle: Klucel (hydroxypropylcellulose) (HPC).
The mark [13] stands for this setting: dose: 200.0 mg/kg/injection, schedule: Q01DX009 (ip), vehicle: Klucel (hydroxypropylcellulose) (HPC).
Where [14] appears, read: dose: 100.0 mg/kg/injection, schedule: Q01DX001 (ip), vehicle: Klucel (hydroxypropylcellulose) (HPC).

For `C(=C(c1ccccc1)c1ccccc1)c1ccccn1`, the T/C reads like this: under setting [1], 97 % of control; (dose: 100.0 mg/kg/injection, schedule: Q04DX003 (ip), vehicle: saline with Tween-80) 98 % of control; under setting [2], 100 % of control; (dose: 200.0 mg/kg/injection, schedule: Q04DX003 (ip), vehicle: saline with Tween-80) 93 % of control; under setting [3], 97 % of control.
For `CNC(=O)Oc1cccc(C(F)(F)F)c1`, the T/C was 90 % of control under setting [4], 98 % of control under setting [5] and 92 % of control under setting [6].
Consider `N/C(=N\O)c1c(N)ncn1C1OC(CO)C(O)C1O` (stereo unspecified), for which the T/C (dose: 100.0 mg/kg/injection, schedule: Q01DX005 (ip), vehicle: saline) was 97 % of control and the T/C (dose: 200.0 mg/kg/injection, schedule: Q01DX005 (ip), vehicle: saline) is 100 % of control.
`O=C1Nc2ccccc2C1(O)c1ccccc1` (stereo unspecified): the T/C was 103 % of control (dose: 75.0 mg/kg/injection, schedule: Q01DX001 (ip), vehicle: saline); 101 % of control (dose: 150.0 mg/kg/injection, schedule: Q01DX001 (ip), vehicle: saline); 92 % of control (dose: 300.0 mg/kg/injection, schedule: Q01DX001 (ip), vehicle: saline).
For the compound `Nc1nnco1`, the T/C runs as follows: (dose: 222.0 mg/kg/injection, schedule: Q01DX Z (ip), vehicle: saline) 97 % of control; (dose: 333.0 mg/kg/injection, schedule: Q01DX Z (ip), vehicle: saline) 108 % of control; (dose: 500.0 mg/kg/injection, schedule: Q01DX Z (ip), vehicle: saline) 97 % of control.
Consider `O=C1Nc2ccccc2C1=O`, for which the T/C runs as follows: under setting [7], 92 % of control; under setting [8], 103 % of control; under setting [9], 99 % of control; (dose: 200.0 mg/kg/injection, schedule: Q01DX009 (ip), vehicle: saline) 103 % of control; (dose: 200.0 mg/kg/injection, schedule: Q04DX003 (ip), vehicle: saline) 99 % of control; (dose: 400.0 mg/kg/injection, schedule: Q01DX009 (ip), vehicle: saline) 96 % of control. For the same compound, the T/C (dose: 400.0 mg/kg/injection, schedule: Q04DX003 (ip), vehicle: saline) is 99 % of control.
Take `CCCOP(=O)(N1CC1(C)C)N1CC1(C)C` (stereo unspecified): the T/C is 201 % of control (dose: 100.0 mg/kg/injection, schedule: Q04DX002 (ip), vehicle: saline) and 155 % of control (dose: 200.0 mg/kg/injection, schedule: Q04DX002 (ip), vehicle: saline).
On to `CCN(CC)CCOC(=O)N(c1ccccc1)c1ccccc1`, for which the T/C (dose: 6.25 mg/kg/injection, schedule: Q01DX009 (ip), vehicle: saline) was 103 % of control; the T/C (dose: 12.5 mg/kg/injection, schedule: Q01DX009 (ip), vehicle: saline) is 106 % of control; the T/C (dose: 25.0 mg/kg/injection, schedule: Q01DX009 (ip), vehicle: saline) is 104 % of control; the T/C (dose: 25.0 mg/kg/injection, schedule: Q04DX003 (ip), vehicle: saline) was 92 % of control; the T/C under setting [7] is 95 % of control; the T/C (dose: 50.0 mg/kg/injection, schedule: Q04DX003 (ip), vehicle: saline) is 103 % of control. Also, the T/C under setting [8] is 100 % of control and the T/C under setting [9] was 103 % of control.
With `COC(=O)C(C)CSP(=S)(Oc1ccccc1)Oc1ccccc1` (stereo unspecified), the T/C under setting [10] was 105 % of control; the T/C under setting [11] was 105 % of control; the T/C (dose: 400.0 mg/kg/injection, schedule: Q04DX002 (ip), vehicle: saline with Tween-80) is 102 % of control.
As for `CC1(C)N=C(N)N=C(N)N1c1cccc(Cc2ccccc2)c1`, the T/C (dose: 25.0 mg/kg/injection, schedule: Q01DX001 (ip), vehicle: saline with Tween-80) is 92 % of control and the T/C (dose: 50.0 mg/kg/injection, schedule: Q01DX001 (ip), vehicle: saline with Tween-80) was 106 % of control.
As for `Cc1cc(=O)oc2cc(OC(=O)Nc3ccc(Cl)cc3C(F)(F)F)ccc12`, the T/C by setting is: under setting [1], 97 % of control; under setting [2], 97 % of control; under setting [3], 92 % of control.
For the compound `CN(N=O)C(=O)NC(=O)N(C)N=O`, the T/C is 155 % of control (dose: 18.0 mg/kg/injection, schedule: Q01DX Z (ip), vehicle: carboxymethylcellulose (CMC)); 110 % of control (dose: 27.5 mg/kg/injection, schedule: Q01DX001 (ip), vehicle: carboxymethylcellulose (CMC)); 118 % of control (dose: 54.0 mg/kg/injection, schedule: Q01DX001 (ip), vehicle: carboxymethylcellulose (CMC)); 87 % of control (dose: 75.0 mg/kg/injection, schedule: Q01DX Z (ip), vehicle: carboxymethylcellulose (CMC)); 86 % of control (dose: 108.0 mg/kg/injection, schedule: Q01DX001 (ip), vehicle: carboxymethylcellulose (CMC)).
On to `CCCCSN1CCCCC1`, for which the T/C runs as follows: under setting [10], 93 % of control; under setting [11], 93 % of control.
Turning to `N#CCC(=O)N/N=C\c1ccc2c(c1)OCO2`, the T/C was 97 % of control under setting [4], 94 % of control under setting [5] and 97 % of control under setting [6].
On to `ClCc1c(Cl)c(Cl)c(Cl)c(CCl)c1Cl`, for which the T/C is 98 % of control under setting [12]; 96 % of control (dose: 100.0 mg/kg/injection, schedule: Q04DX003 (ip), vehicle: Klucel (hydroxypropylcellulose) (HPC)); 96 % of control under setting [13]; 98 % of control (dose: 200.0 mg/kg/injection, schedule: Q04DX003 (ip), vehicle: Klucel (hydroxypropylcellulose) (HPC)); 102 % of control (dose: 400.0 mg/kg/injection, schedule: Q04DX003 (ip), vehicle: Klucel (hydroxypropylcellulose) (HPC)).
For `C=C(Br)CNC(=O)c1ccccc1`, the T/C reads like this: (dose: 12.5 mg/kg/injection, schedule: Q01DX009 (ip), vehicle: Klucel (hydroxypropylcellulose) (HPC)) 97 % of control; (dose: 25.0 mg/kg/injection, schedule: Q01DX009 (ip), vehicle: Klucel (hydroxypropylcellulose) (HPC)) 108 % of control; (dose: 50.0 mg/kg/injection, schedule: Q01DX009 (ip), vehicle: Klucel (hydroxypropylcellulose) (HPC)) 90 % of control; under setting [14], 101 % of control; (dose: 200.0 mg/kg/injection, schedule: Q01DX001 (ip), vehicle: Klucel (hydroxypropylcellulose) (HPC)) 106 % of control.
With `CCCCCCCCCCCCCCCCCc1c(Cl)c(Cl)c(Cl)c(Cl)c1Cl`, the T/C under setting [14] was 90 % of control.
For `COc1ccc(OC)c2c1CCCC2`, the T/C by setting is: under setting [12], 106 % of control; under setting [13], 117 % of control.
Consider `CN(C(=O)/C=C/c1ccccc1)C1CCCCC1`, for which the T/C under setting [12] was 101 % of control; the T/C under setting [13] was 110 % of control; the T/C (dose: 400.0 mg/kg/injection, schedule: Q01DX009 (ip), vehicle: Klucel (hydroxypropylcellulose) (HPC)) was 111 % of control.
Consider `O=S(CS(=O)c1ccccc1)c1ccccc1` (stereo unspecified), for which the T/C by setting is: (dose: 100.0 mg/kg/injection, schedule: Q01DX001 (ip), vehicle: saline) 100 % of control; (dose: 200.0 mg/kg/injection, schedule: Q01DX001 (ip), vehicle: saline) 94 % of control; (dose: 400.0 mg/kg/injection, schedule: Q01DX001 (ip), vehicle: saline) 100 % of control.
Turning to `NC1=NC(CCc2ccccc2)N(c2ccc3ccccc3c2)C(N)=N1` (stereo unspecified), the T/C is, setting by setting: (dose: 4.7 mg/kg/injection, schedule: Q01DX009 (ip), vehicle: saline sonified) 96 % of control; (dose: 9.4 mg/kg/injection, schedule: Q01DX009 (ip), vehicle: saline sonified) 103 % of control; (dose: 18.8 mg/kg/injection, schedule: Q01DX001 (ip), vehicle: saline) 91 % of control.
For the compound `CN=C(N)NCCCCCCCCNC(N)=NC`, the T/C (dose: 5.0 mg/kg/injection, schedule: Q01DX001 (ip), vehicle: saline) is 95 % of control; the T/C (dose: 10.0 mg/kg/injection, schedule: Q01DX001 (ip), vehicle: saline) was 101 % of control; the T/C (dose: 20.0 mg/kg/injection, schedule: Q01DX001 (ip), vehicle: saline) was 101 % of control.
